Series [1] has as its system cultivated human tumour cells. Description: FACS analysis on PI stained tumor cells, cell cycle progression (general). Type of series: cell-based. The settings on record: summary in words, see Table 1. From the text:
FACS Analysis on PI Stained Tumor Cells
Propidium iodine (PI) binds stoichiometrically to double stranded DNA and thus is a suitable agent to measure the DNA content of cells in order to determine the percentage of cells residing in various cell cycle stages (G0/1-, S- and G2/M-phases), whereas cells in G0 or G1 phase do have a diploid DNA content (2N) cells in G2 and M-phase (mitosis) do have a doubled (4N) DNA content.
Cell culture: The various human tumor cell lines can be purchased from American Type Culture Collection (ATCC) or the German Collection of Microorganisms and Cell Cultures (DSMZ) and cultivated in 75 to 175 cm^2 tissue culture flasks in the medium indicated by the supplier. […]
Data analysis: Analysis of the DNA content of the cells can be performed using a FACS analyzer equipped with an argon laser (500 mW, emission 488 nm) and the use of the DNA Cell Quest analysis software (Beckton Dickinson). The logarithmic PI fluorescence is determined in a band-pass filter (Beckton Dickinson 585/43). Quantification of the cell populations residing in the individual cell cycle phases (e.g. G0/G1-, S- and G2/M-phases) is done with the ModFit LT software package from Becton Dickinson. An EC50 value for cells arrested at the G2/M-phase of the cell cycle is calculated by using a sigmoidal curve analysis program (Graph Pad Prism version 3.03).

Series [2] has as its system cultivated human tumour cells. Description: Alamar Blue cytotoxicity assay (general). Type of series: cell-based. To be noted: summary in words, see Table 1. On the technique in general: Resazurin is reduced to fluorescent resorufin, in cell work by metabolically active cells.
From the text: Alamar Blue™ Cytotoxicity Assays
The Alamar Blue™ assay is designed to measure quantitatively the proliferation of cells by incorporating a fluorometric/colorimetric growth indicator based on the detection of metabolic activity.
Cell culture: The various human tumor cell lines can be purchased from American Type Culture Collection (ATCC) or the German Collection of Microorganisms and Cell Cultures (DSMZ) and cultivated in 75 to 175 cm^2 tissue culture flasks in the medium indicated by the supplier. The cells are maintained at 37° C. and 5% CO2 in a humidified atmosphere, with an appropriate split ratio. Logarithmically growing cells are used for the assays.
Assay conditions: On day one of the experiment 1000-4000 cells (in 100 μl medium) are seeded into each well of a sterile 96-well plate. The number of cells used is dependent on the growth rate and size of the cells. Eight wells on each plate are left free to accommodate for controls (4 wells for medium plus reduced AlamarBlue™, and 4 wells for medium plus oxidized AlamarBlue™). The plates are kept in the incubator overnight. On day two of the experiment serial dilutions of the inhibitor are prepared in medium containing 0.1% DMSO. […] After 4-5 h of incubation, the plates are measured in a fluorescence spectrophotometer (excitation 530 nm, emission 590 nm, slits 15, integrate time 0.1). […]

Molecules are shown by their SMILES.

`CC[C@@H]1C(=O)N(C)c2cnc(Nc3ccc(C(=O)NC4CCN(C)CC4)cc3OC)nc2N1C1CCCC1` [Example 46, 4-[[(7R)-8-cyclopentyl-7-ethyl-5,6,7,8-tetrahydro-5-methyl-6-oxo-2-pteridinyl]amino]-3-methoxy-N-(1-methyl-4-piperidinyl)-benzamide]: the “inhibitory effect on cell cycle progression by FACS analysis” value in series [1] is “good to very good activity”. Further, the “activity in cytotoxicity tests on cultivated human tumour cells” value in series [2] is given as “good to very good activity”.

The values are drawn from US8058270B2, “Dihydropteridinones for the treatment of cancer diseases” (Boehringer Ingelheim International GmbH, priority 2004, dated 2011).
